The text below walks through data of patent publication US4500467A, “Benzoylthio compounds, their preparation and their use as drugs” (BASF Aktiengesellscaft, priority 1982, dated 1985).

The target of this assay is T1, angiotensin converting enzyme (Rattus norvegicus, UniProt P47820).
T1 construct: from tissue; host or cells: rat blood plasma (ex vivo, after oral dosing)
T1 sequence (P47820 36-1238 limits assumed): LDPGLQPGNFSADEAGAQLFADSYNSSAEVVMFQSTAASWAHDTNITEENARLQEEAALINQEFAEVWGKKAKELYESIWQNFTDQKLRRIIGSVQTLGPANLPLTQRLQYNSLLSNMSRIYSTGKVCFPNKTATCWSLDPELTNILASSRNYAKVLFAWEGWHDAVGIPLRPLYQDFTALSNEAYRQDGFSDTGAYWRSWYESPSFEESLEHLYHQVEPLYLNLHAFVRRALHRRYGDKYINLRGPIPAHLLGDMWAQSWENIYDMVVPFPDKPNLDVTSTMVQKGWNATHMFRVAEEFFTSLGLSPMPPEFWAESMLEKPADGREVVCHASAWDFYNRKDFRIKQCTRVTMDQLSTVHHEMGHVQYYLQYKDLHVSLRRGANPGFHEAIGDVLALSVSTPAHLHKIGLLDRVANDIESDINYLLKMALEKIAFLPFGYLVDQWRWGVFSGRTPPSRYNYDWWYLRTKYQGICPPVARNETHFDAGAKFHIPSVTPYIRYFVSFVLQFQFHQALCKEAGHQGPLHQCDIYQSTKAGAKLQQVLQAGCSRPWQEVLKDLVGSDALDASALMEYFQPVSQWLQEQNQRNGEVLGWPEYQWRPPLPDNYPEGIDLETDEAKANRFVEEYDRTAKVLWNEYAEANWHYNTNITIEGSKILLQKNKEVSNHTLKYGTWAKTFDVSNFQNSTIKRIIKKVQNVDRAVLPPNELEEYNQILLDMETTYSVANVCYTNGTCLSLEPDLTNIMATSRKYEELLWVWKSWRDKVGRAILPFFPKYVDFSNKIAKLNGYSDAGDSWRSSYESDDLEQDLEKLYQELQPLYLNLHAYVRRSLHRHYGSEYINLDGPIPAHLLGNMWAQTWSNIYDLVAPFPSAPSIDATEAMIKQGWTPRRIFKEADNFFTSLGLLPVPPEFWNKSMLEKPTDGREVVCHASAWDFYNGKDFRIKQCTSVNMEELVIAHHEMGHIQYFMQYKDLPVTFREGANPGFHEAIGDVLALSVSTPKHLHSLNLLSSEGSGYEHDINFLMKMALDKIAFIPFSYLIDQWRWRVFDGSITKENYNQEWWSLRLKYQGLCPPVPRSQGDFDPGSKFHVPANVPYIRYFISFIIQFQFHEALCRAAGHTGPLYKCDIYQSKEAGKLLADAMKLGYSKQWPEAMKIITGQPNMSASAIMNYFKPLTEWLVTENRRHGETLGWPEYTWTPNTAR
Nature of the assay: inhibition of angiotensin converting enzyme ex vivo in rats (plasma before and 2 hours after oral administration, 14C-hippuryl-histidylleucine substrate). As to conditions: for angiotensin converting enzyme is inhibited in doses smaller than the captopril dose: compared with captopril dose; for ED50: rat, plasma 2 hours after administration, read-out: ED 50% (dose which produces 50% inhibition of angiotensin converting enzyme); for relative activity: relative to captopril = 1.00, from ED 50%. The procedure:
The following method was used in investigating the pharmacodynamic effect (inhibition of angiotensin converting enzyme ex vivo in rats):
Before, and 2 hours after, oral administration of the substance, blood was withdrawn from the animals, and the plasma was diluted 1:6 with H2 O. The diluted plasma (100 μl) was incubated with 50 μl of ^14 C-hippuryl-histidylleucine solution (K phosphate 260 mM, NaCl 938 mM, pH=8.3) for 1 hour at 37° C. The reaction was terminated by adding 2 ml of 0.1N HCl, and the product, ^14 C-hippuric acid, was extracted with toluene scintillator (PPO+POPOP+toluene+21% of isoamyl alcohol) and determined using a scintillation counter for liquids. After subtraction of the blank value (incubation time=0 minute), the percentage inhibition was determined from the enzymatic activities in the plasma before and after administration of the substance. The ED 50%, ie. the dose which produces 50% inhibition, is calculated from the individual inhibitory values by linear regression following logit-log transformation.

Molecules are shown by their SMILES.

As to `O=C(SC[C@H](SC(=O)c1ccccc1)C(=O)N[C@@H](Cc1c[nH]c2ccccc12)C(=O)O)c1ccccc1` [Example 68, N-[(R)-2,3-Bis-(benzoylthio)-propionyl]-tryptophan], the “angiotensin converting enzyme is inhibited in doses smaller than the captopril dose” value amounted to 5 times smaller, the ED50 came to 0.2 mg/kg and the relative activity was 5.0.
With `C[C@H](NC(=O)[C@H](CSC(=O)c1ccccc1)SC(=O)c1ccccc1)C(=O)N1CCC[C@H]1C(=O)O` [Example 70, N-[(R)-2,3-Bis-(benzoylthio)-propionyl]-alanylproline], the “angiotensin converting enzyme is inhibited in doses smaller than the captopril dose” value is given as 5 times smaller, the ED50 amounted to 0.2 mg/kg and the relative activity is 5.0.
